From ChEMBL document CHEMBL3244107, “Synthesis and structure-activity relationships of bestatin analogues, inhibitors of aminopeptidase B” (J Med Chem, 1977)
≈ marks a conversion by molar mass, not a printed value.

Assays:
[1] = Retardation factor, Rf value of the compound using BuOH-AcOH-H20 at 4:1:1 ratio by ninhydrin; type: physicochemical
Aminopeptidase B = target: T1, Aminopeptidase B (Rattus norvegicus, UniProt O09175); assay: Inhibition of rat liver aminopeptidase B using 0.2 mM […] by colorimetry
T1 sequence (O09175 whole entry): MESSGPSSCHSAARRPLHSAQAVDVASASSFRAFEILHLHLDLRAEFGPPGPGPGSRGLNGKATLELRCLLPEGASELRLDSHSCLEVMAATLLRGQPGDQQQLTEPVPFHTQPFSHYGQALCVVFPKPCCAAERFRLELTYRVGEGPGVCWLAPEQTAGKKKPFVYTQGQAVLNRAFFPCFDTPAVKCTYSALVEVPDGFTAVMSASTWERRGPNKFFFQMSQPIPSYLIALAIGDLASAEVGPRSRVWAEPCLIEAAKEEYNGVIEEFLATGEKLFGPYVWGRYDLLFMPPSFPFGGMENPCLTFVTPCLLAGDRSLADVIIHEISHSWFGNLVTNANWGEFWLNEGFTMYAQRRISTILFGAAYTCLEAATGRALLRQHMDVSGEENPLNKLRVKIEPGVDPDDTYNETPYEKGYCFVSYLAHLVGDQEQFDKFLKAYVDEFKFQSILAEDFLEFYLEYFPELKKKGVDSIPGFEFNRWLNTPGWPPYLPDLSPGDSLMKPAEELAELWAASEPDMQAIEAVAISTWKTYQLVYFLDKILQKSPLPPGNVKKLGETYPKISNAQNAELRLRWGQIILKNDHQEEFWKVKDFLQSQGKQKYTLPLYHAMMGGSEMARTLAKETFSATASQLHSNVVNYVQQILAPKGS

[2] = Inhibition of leucine aminopeptidase B (unknown origin) using 0.2 mM L-leucine-beta-naphthylamide; parameters: species or system Homo sapiens

| Rf [1] | IC50 (Aminopeptidase B) | IC50 [2] | Compound |
| --- | --- | --- | --- |
| 0.47 |  |  | CCCC[C@H](NC(=O)[C@@H](O)[C@H](N)Cc1ccccc1)C(=O)O |
| 0.52 | 0.162 µM | 2.7 µg/mL (≈ 8.76 µM) | CC(C)C[C@@H](NC(=O)[C@@H](O)[C@@H](N)Cc1ccccc1)C(=O)O |
| 0.48 | 357 µM |  | N[C@H](Cc1ccccc1)[C@H](O)C(=O)NCCCCCC(=O)O |
| 0.06 | > 773 µM |  | NCCCC[C@H](NC(=O)[C@@H](O)[C@H](N)Cc1ccccc1)C(=O)O |
| 0.65 | 565 µM |  | CC(C)CCNC(=O)[C@@H](O)[C@H](N)Cc1ccccc1.Cl |
| 0.25 |  |  | CC(C)C[C@H](NC(=O)[C@@H](O)[C@H](N)Cc1ccc(N)cc1)C(=O)O |
| 0.23 |  |  | CC(C)C[C@H](NC(=O)[C@H](O)[C@@H](C)N)C(=O)O |
| 0.27 |  |  | CC(C)C[C@H](NC(=O)[C@@H](O)[C@@H](C)N)C(=O)O |
| 0.52 |  |  | CC(C)C[C@H](NC(=O)[C@@H](O)[C@H](N)Cc1ccc(Cl)cc1)C(=O)O |
| 0.49 |  | 3.4 µg/mL (≈ 11 µM) | CC(C)C[C@@H](NC(=O)[C@@H](O)[C@H](N)Cc1ccccc1)C(=O)O |
| 0.37 |  | 0.07 µg/mL (≈ 0.227 µM) | CC(C)C[C@H](NC(=O)[C@@H](O)[C@@H](N)Cc1ccccc1)C(=O)O |
| 0.58 |  |  | CCCCCCC(NC(=O)[C@@H](O)[C@H](N)Cc1ccccc1)C(=O)O (mixture of isomers) |
| 0.48 | 0.162 µM | 0.01 µg/mL (≈ 0.0324 µM) | CC(C)C[C@H](NC(=O)[C@@H](O)[C@H](N)Cc1ccccc1)C(=O)O [UBENIMEX] |

Continued, compound first:

| Compound | Rf [1] | IC50 (Aminopeptidase B) | IC50 [2] |
| --- | --- | --- | --- |
| CC(C)C[C@H](NC(=O)[C@@H](O)[C@H](N)CC(C)C)C(=O)O | 0.49 |  |  |
| CC(C)C[C@@H](NC(=O)[C@H](O)[C@H](N)Cc1ccccc1)C(=O)O | 0.37 | > 811 µM | > 250 µg/mL |
| CC(C)C[C@H](NC(=O)[C@H](O)[C@@H](N)Cc1ccccc1)C(=O)O | 0.49 | > 811 µM | > 250 µg/mL |
| CC(C)C[C@@H](NC(=O)[C@H](O)[C@@H](N)Cc1ccccc1)C(=O)O | 0.48 | 438 µM | > 250 µg/mL |
| N[C@H](Cc1ccccc1)[C@H](O)C(=O)NCC(=O)O | 0.26 |  |  |
| N[C@H](Cc1ccccc1)[C@H](O)C(=O)NCCCC(=O)O | 0.35 | 392 µM |  |
| N[C@H](Cc1ccccc1)[C@H](O)C(=O)N1CCC[C@H]1C(=O)O | 0.25 | > 855 µM |  |
| N[C@H](Cc1ccccc1)[C@H](O)C(=O)N[C@@H](CCC(=O)O)C(=O)O | 0.27 |  |  |
| NC(=O)CC[C@H](NC(=O)[C@@H](O)[C@H](N)Cc1ccccc1)C(=O)O | 0.17 |  |  |
| N[C@H](Cc1ccccc1)[C@H](O)C(=O)N[C@@H](CO)C(=O)O | 0.2 | 2.48 µM |  |
| CSCC[C@H](NC(=O)[C@@H](O)[C@H](N)Cc1ccccc1)C(=O)O | 0.37 |  |  |
| C[C@H](NC(=O)[C@@H](O)[C@H](N)Cc1ccccc1)C(=O)O | 0.21 | 1.01 µM |  |
| CC(C)[C@H](NC(=O)[C@@H](O)[C@H](N)Cc1ccccc1)C(=O)O | 0.42 |  |  |
| CCC[C@H](NC(=O)[C@@H](O)[C@H](N)Cc1ccccc1)C(=O)O | 0.41 |  |  |
| CC[C@H](C)[C@H](NC(=O)[C@@H](O)[C@H](N)Cc1ccccc1)C(=O)O | 0.48 | 0.13 µM |  |
| N[C@H](Cc1ccccc1)[C@H](O)C(=O)N[C@@H](Cc1ccccc1)C(=O)O | 0.44 |  |  |
| CC(C)C[C@H](NC(=O)[C@@H](O)[C@H](N)Cc1ccccc1)C(=O)NCC(=O)O | 0.34 | 93 µM |  |
| CC(C)C[C@H](NC(=O)[C@@H](O)CN)C(=O)O | 0.13 | 641 µM |  |
| CC(C)C[C@H](NC(=O)[C@H](O)CN)C(=O)O | 0.13 | > 1150 µM |  |
| CC(C)C[C@H](NC(=O)[C@@H](O)[C@H](N)CC1CCCCC1)C(=O)O | 0.47 | 3.5 µM |  |
| CC(C)C[C@H](NC(=O)[C@@H](O)[C@H](N)Cc1ccc([N+](=O)[O-])cc1)C(=O)O | 0.58 |  |  |
| CC(C)C[C@H](NC(=O)[C@H](O)[C@H](N)CC(C)C)C(=O)O | 0.43 |  |  |
| CC(C)C[C@H](NC(=O)[C@H](O)[C@H](N)c1ccccc1)C(=O)O | 0.38 |  |  |
| CC(C)C[C@H](NC(=O)[C@@H](O)[C@H](N)c1ccccc1)C(=O)O | 0.41 |  |  |
| CC(C)C[C@H](NC(=O)[C@H](O)[C@H](N)Cc1ccc(Cl)cc1)C(=O)O | 0.42 |  |  |
| Cc1ccc(C[C@@H](N)[C@@H](O)C(=O)N[C@@H](CC(C)C)C(=O)O)cc1 | 0.53 |  |  |
| Cc1ccc(C[C@@H](N)[C@H](O)C(=O)N[C@@H](CC(C)C)C(=O)O)cc1 | 0.58 |  |  |
| N[C@H](Cc1ccccc1)[C@H](O)C(=O)NCCC(=O)O | 0.34 | 141 µM |  |
| CC(C)C[C@H](NC(=O)[C@H](O)[C@H](N)Cc1ccccc1)C(=O)O | 0.52 | 324 µM | 7.5 µg/mL (≈ 24.3 µM) |
| CC(C)C[C@H](NC(=O)C(O)C(N)Cc1ccccc1Cl)C(=O)O (mixture of isomers) | 0.46 |  |  |
